Experiments:
[1] = Specific Absorption Rate (SAR) / scan safety inferred from the longer spin-lattice relaxation time; details: summary statement
Text: While the spin-lattice relaxation time is 60% longer for OFCB compared to PFP, which limits the potential number of signal averages, the longer spin-lattice relaxation means that there are a smaller number of radio pulses with OFCB. This means that the Specific Absorption Rate (SAR) is lower for OFCB-O2 scans. […] The lower SAR value of OFCB scans means that ^19F OFCB lung MRI is safer for patients than MRI scans acquired using other inert fluorinated gases.

[2] = Measured relaxation parameters (19F MRI relaxation times) of pure gases and gas-O2 mixtures in vitro; format: physicochemical; details: for T2′ / T1: in vitro, pure gas or gas-O2 breathing mixture; for T1: spin-lattice relaxation time
Text: The relaxation times for OFCB-O2 mixture In Vivo should be measured experimentally. We measured the relaxation times for pure OFCB and OFCB-O2 mixture in vitro.
While we were not first who measured the relaxation times for pure OFCB, to our knowledge, we are the first who characterized the OFCB-O2 breathing mixture.

Row | SMILES | safer compared to PFP [1] [%] | spin-lattice relaxation time longer compared to PFP ([2]; OFCB compared to PFP) [%] | T2′ [2] [ms] | T1 [2] [ms]
1 | FC1(F)C(F)(F)C(F)(F)C1(F)F [OFCB, octafluorocyclobutane] | 60 | 60 | 10.5 ± 1.8 | 27.9 ± 0.8
2 | FC(F)(F)C(F)(F)C(F)(F)F [PFP, perfluoropropane, reference compound] | – | – | 6.26 ± 0.27 | 18.6 ± 0.4

Source: US20210068659A1, “Use of Octafluorocyclobutane for Lung Imaging” (Lakehead University, priority 2019, published 2021)
